2 compounds from patent publication US20210260145A1, “PHARMACEUTICAL COMPOSITION FOR ALLEVIATING EYE FATIGUE, CONTAINING, AS ACTIVE INGREDIENTS, LUTEOLIN-7-O-DIGLUCURONIDE AND APIGENIN-7-O-DIGLUCURONIDE ISOLATED FROM PERILLA FRUTESCENS (L.) BRITTON VAR. ACUTA (THUNB.) KUDO LEAF EXTRACT” (JEONNAM BIOINDUSTRY FOUNDATION, priority 2018, published 2021) can be followed below.

The test system of this experiment is Ciliary muscle cells (rCSMCs) isolated from rat's eyes. Put plainly: cGMP content in rat ciliary muscle cells, isolated compounds (ELISA). The format is cell-based. The settings on record: compounds 0.01, 0.05, 0.1, 1 μg/mL, 15 minutes. As to the method: Ciliary muscle cells ([…]) isolated from rat's eyes were dispensed into 6 wells at 5×10^5 cells/well and stabilized for one day. After stabilization, 3-isobuytyl-1-methylxanthine (1 mM) was pre-treated for 10 minutes, and then luteolin-7-O-diglucuronide and apigenin-7-O-diglucuronide compounds isolated from the Perilla frutescens (L.) Britton var. acuta (Thunb.) Kudo leaf extract were reacted for 15 minutes at concentrations of 0.01, 0.05, 0.1, and 1 μg/mL. The cGMP contents of these compounds were measured using an ELISA kit.
For orientation: An ELISA detects its analyte on a solid surface through an enzyme-linked reagent.

Regarding `O=C(O)[C@H]1O[C@@H](O[C@H]2[C@H](Oc3cc(O)c4c(=O)cc(-c5ccc(O)cc5)oc4c3)O[C@H](C(=O)O)[C@@H](O)[C@@H]2O)[C@H](O)[C@@H](O)[C@@H]1O` [apigenin-7-O-diglucuronide], the cGMP content result is given as “increasing the cGMP content”.
For the compound luteolin-7-O-diglucuronide, the cGMP content result is given as “increasing the cGMP content”.
